Data published in ChEMBL document CHEMBL5550200, “Back-Pocket Optimization of 2-Aminopyrimidine-Based Macrocycles Leads to Potent EPHA2/GAK Kinase Inhibitors” (J Med Chem, 2024).

Key:
[1] = biological target: T1, Cyclin-G-associated kinase (Homo sapiens) (UniProt O14976)
T1 sequence (whole entry): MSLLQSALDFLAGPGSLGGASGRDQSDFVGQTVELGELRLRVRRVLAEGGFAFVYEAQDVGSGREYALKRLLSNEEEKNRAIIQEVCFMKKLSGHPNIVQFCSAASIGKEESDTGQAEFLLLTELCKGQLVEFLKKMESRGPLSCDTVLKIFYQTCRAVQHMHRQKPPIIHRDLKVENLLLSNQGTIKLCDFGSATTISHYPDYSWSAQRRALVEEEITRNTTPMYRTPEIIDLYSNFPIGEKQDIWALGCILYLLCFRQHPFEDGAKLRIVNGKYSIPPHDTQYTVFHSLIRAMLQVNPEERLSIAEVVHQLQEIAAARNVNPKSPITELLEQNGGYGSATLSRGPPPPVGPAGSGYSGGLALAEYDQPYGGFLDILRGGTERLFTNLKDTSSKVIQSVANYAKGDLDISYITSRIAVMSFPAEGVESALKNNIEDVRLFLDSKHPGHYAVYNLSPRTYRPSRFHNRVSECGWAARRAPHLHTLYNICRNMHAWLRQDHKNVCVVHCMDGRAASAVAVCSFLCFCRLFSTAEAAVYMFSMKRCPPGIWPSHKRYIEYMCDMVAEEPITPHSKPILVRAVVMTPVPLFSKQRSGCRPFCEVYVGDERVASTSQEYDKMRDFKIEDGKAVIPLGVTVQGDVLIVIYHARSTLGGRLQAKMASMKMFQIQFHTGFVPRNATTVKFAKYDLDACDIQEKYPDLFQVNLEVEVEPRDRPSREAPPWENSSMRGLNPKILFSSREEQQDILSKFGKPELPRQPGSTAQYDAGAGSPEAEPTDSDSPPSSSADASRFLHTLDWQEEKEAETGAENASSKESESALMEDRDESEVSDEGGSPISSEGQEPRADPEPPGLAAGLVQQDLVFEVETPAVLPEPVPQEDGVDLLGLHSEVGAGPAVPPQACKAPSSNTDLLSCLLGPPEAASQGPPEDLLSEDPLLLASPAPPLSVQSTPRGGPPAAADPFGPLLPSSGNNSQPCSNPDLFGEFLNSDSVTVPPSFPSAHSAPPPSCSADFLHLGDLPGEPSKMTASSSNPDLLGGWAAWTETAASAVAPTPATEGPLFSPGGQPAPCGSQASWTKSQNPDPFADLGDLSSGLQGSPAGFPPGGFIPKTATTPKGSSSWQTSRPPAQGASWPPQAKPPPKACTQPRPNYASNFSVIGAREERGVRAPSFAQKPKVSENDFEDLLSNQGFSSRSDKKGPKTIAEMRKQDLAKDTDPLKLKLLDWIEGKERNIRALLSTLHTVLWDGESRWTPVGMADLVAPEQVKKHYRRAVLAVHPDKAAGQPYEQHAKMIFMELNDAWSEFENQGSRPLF
Description: Induction of stabilization of recombinant GAK (unknown origin) assessed as change in melting temperature by differential scanning fluorimetry assay

[2] = biological target: Ephrin type-A receptor 7 (Homo sapiens) (UniProt Q15375); test: Induction of stabilization of recombinant EPHA7 (unknown origin) assessed as change in melting temperature by differential scanning fluorimetry assay
Ephrin type-A receptor 7 (Homo sapiens), sequence (Q15375 28-998 limits assumed): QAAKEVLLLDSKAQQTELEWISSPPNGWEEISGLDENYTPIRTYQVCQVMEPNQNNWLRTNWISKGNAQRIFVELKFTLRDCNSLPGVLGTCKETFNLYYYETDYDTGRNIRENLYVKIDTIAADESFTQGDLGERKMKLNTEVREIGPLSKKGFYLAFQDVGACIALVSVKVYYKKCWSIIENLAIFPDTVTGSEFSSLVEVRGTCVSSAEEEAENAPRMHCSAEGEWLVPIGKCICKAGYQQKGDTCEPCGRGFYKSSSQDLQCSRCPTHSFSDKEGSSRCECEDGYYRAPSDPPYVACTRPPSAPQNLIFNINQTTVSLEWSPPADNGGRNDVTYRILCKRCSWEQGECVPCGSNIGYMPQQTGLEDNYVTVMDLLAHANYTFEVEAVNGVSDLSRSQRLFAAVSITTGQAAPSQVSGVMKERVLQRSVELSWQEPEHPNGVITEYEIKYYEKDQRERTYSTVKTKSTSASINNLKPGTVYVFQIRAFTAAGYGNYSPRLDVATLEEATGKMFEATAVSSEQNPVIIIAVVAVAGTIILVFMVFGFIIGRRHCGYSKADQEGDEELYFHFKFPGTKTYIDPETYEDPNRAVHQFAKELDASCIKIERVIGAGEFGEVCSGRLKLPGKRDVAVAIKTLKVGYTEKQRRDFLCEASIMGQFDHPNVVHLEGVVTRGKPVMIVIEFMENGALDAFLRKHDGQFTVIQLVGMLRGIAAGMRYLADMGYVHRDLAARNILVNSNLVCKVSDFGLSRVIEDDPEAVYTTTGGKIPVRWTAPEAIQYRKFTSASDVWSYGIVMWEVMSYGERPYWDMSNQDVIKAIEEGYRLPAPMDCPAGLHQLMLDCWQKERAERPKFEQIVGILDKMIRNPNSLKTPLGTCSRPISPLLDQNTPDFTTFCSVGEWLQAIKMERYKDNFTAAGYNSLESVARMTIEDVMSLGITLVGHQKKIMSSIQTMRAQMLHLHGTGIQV

[3] = biological target: Fibroblast growth factor receptor 1 (Homo sapiens, UniProt P11362)
Fibroblast growth factor receptor 1, sequence (P11362 22-822 limits assumed): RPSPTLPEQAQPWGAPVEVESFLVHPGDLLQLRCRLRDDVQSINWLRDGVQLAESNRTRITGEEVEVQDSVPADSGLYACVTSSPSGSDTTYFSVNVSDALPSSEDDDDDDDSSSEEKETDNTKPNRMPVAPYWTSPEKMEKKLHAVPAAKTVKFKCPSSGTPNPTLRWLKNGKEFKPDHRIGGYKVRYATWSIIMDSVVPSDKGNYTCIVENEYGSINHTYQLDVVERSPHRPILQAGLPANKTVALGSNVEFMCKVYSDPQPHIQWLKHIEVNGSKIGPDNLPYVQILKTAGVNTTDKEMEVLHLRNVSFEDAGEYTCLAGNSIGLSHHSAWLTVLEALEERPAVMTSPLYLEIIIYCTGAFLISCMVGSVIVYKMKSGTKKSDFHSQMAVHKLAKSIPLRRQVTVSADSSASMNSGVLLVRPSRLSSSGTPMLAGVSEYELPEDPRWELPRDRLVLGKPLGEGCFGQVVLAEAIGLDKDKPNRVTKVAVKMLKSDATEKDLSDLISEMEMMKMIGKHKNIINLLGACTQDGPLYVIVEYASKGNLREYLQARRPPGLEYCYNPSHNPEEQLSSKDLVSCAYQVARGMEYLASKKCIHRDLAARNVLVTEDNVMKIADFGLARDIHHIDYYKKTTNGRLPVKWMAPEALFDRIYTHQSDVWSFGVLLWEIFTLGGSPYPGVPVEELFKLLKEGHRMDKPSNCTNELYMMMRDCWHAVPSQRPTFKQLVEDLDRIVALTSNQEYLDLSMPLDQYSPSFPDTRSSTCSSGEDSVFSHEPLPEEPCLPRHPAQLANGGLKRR
Description: Induction of stabilization of recombinant FGFR1 (unknown origin) assessed as change in melting temperature by differential scanning fluorimetry assay

[4] = biological target: Ephrin type-A receptor 5 (Homo sapiens) (UniProt P54756)
Ephrin type-A receptor 5 (Homo sapiens), sequence (P54756 whole entry): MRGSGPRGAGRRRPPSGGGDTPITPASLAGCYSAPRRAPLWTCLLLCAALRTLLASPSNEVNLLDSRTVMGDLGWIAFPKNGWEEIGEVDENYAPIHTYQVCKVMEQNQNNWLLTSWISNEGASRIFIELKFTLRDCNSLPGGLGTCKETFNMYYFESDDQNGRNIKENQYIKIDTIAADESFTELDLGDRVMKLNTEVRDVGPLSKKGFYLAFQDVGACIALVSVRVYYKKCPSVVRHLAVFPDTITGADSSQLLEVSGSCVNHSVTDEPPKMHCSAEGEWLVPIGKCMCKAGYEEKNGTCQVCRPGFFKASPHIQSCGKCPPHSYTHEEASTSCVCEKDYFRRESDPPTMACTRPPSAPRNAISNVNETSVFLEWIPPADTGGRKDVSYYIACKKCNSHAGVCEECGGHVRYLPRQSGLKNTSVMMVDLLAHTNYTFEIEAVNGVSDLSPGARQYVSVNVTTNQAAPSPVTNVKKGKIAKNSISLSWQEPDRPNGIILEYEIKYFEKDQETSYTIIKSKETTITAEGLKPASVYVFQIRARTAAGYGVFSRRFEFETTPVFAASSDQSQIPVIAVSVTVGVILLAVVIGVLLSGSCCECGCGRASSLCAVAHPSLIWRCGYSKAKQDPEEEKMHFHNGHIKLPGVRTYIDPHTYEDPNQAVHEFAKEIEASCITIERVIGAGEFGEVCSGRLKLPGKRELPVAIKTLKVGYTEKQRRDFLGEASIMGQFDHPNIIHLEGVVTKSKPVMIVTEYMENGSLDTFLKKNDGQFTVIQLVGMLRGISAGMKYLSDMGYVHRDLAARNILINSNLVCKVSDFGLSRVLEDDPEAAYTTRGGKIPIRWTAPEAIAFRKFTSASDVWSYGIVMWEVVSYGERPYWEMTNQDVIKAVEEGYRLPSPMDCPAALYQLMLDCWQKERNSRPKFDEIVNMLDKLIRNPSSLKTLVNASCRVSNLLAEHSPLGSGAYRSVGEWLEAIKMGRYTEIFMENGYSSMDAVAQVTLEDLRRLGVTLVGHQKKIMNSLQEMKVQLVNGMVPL
Description: Induction of stabilization of recombinant EPHA5 (unknown origin) assessed as change in melting temperature by differential scanning fluorimetry assay

[5] = biological target: Vascular endothelial growth factor receptor 1 (Homo sapiens, UniProt P17948); test: Induction of stabilization of recombinant FLT1 (unknown origin) assessed as change in melting temperature by differential scanning fluorimetry assay
Vascular endothelial growth factor receptor 1, sequence (P17948 whole entry): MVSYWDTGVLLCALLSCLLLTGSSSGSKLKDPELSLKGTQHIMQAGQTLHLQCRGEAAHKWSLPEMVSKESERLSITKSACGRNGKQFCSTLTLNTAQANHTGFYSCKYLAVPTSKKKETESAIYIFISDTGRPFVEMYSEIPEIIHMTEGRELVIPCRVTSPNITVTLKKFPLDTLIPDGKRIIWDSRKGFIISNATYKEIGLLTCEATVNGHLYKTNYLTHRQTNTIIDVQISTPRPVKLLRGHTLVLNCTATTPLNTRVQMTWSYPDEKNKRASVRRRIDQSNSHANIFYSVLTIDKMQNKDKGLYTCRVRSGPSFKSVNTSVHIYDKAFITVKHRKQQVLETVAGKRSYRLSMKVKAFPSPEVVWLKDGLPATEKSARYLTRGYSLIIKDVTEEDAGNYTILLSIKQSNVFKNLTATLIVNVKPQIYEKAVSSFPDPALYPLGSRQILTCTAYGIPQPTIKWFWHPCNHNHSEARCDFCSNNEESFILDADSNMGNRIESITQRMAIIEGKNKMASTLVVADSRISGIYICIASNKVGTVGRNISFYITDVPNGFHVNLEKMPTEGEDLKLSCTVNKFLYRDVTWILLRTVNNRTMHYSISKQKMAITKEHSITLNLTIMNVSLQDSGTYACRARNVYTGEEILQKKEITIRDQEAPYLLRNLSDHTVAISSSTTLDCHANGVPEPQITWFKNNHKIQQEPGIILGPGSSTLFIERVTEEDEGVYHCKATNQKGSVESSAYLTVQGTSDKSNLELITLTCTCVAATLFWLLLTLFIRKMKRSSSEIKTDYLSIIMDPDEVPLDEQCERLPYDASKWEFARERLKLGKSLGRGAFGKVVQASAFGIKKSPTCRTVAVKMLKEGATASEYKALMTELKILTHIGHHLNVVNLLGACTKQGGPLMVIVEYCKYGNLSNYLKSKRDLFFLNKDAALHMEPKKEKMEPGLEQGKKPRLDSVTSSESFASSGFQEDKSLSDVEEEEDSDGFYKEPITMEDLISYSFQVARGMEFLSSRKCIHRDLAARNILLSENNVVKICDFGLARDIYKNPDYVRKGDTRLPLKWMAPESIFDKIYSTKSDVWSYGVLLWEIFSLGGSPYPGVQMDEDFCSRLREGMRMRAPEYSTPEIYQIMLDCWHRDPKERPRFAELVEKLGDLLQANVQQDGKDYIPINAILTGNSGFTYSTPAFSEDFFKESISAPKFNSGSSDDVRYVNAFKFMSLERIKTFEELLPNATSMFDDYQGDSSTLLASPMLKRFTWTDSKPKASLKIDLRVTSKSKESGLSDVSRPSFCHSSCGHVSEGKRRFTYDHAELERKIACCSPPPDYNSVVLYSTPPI

[6] = tested on: Huh-7; test: Cytotoxicity against human Huh-7 cells assessed as reduction in cell viability by alamar blue reagent based analysis; format: functional
[7] = biological target: Ephrin type-A receptor 2 (Homo sapiens, UniProt P29317)
Ephrin type-A receptor 2, sequence (P29317 whole entry): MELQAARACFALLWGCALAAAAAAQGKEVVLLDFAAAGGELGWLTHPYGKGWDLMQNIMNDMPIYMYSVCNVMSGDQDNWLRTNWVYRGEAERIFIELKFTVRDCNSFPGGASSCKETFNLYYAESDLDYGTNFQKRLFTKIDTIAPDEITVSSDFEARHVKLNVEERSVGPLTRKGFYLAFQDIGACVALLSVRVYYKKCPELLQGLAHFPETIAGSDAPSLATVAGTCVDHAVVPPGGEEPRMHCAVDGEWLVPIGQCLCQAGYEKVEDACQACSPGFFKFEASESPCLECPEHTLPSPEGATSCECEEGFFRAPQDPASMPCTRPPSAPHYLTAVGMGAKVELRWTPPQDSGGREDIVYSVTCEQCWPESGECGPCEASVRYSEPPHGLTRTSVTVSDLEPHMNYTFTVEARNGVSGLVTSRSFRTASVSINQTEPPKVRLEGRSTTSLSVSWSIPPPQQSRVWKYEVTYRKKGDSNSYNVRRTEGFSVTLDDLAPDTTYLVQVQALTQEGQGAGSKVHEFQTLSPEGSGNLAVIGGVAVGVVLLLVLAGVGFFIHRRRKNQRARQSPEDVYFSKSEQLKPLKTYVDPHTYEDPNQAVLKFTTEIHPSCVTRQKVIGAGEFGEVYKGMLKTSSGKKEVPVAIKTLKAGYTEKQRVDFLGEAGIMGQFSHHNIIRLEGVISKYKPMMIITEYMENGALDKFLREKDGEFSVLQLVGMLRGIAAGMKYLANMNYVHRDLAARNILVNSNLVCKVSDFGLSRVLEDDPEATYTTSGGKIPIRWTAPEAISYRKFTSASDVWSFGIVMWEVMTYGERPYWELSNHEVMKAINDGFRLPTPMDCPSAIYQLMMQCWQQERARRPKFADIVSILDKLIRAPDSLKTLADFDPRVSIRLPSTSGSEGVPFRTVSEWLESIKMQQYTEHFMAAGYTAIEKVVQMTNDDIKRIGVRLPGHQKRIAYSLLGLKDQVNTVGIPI
Description: Induction of stabilization of recombinant EPHA2 (D596 to G900 residues) (unknown origin) expressed in Escherichia coli rosetta BL21(D3)-R3-pRARE2 competent cells assessed as change in melting temperature by differential scanning fluorimetry assay

[8] = tested on: dengue virus type 2; test: Antiviral activity against DENV-2 New Guinea C infected in human Huh-7 cells assessed as reduction in virus induced cytopathic effect preincubated with cells for 1 hr followed by viral infection and measured after 45 to 48 hrs by luciferase assay; format: functional, organism-based; conditions: for EC90: time 45-48 hrs
[9] = biological target: T2, Ephrin type-B receptor 3 (Homo sapiens) (UniProt P54753); test: Induction of stabilization of recombinant EPHB3 (unknown origin) assessed as change in melting temperature by differential scanning fluorimetry assay
T2 sequence (whole entry): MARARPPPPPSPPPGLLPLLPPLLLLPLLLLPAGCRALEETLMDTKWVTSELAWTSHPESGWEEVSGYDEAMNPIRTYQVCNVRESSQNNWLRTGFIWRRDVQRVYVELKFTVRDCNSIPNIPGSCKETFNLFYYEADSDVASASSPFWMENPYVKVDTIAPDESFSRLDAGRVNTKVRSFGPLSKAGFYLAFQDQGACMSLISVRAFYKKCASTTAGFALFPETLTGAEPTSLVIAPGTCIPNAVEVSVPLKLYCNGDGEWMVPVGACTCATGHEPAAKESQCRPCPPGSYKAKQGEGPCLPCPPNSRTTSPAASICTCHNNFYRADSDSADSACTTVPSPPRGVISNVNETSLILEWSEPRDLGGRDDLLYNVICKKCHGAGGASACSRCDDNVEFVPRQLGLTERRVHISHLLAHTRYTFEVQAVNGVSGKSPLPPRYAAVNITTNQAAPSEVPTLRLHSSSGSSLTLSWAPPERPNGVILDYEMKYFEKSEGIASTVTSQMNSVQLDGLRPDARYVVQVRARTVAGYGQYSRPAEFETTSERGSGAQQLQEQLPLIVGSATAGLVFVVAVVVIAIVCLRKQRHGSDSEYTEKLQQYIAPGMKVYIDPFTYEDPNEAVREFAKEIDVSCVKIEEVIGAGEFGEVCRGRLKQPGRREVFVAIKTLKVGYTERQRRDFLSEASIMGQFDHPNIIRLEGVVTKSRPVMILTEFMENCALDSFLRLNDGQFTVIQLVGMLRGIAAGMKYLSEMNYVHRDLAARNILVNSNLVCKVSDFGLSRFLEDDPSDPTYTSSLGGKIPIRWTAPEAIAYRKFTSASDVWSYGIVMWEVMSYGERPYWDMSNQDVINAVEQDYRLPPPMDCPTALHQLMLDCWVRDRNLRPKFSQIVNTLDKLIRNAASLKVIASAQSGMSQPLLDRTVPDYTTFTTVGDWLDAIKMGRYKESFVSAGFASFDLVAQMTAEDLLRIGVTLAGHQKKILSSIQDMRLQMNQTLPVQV

Row | deltaTm [1] | deltaTm [2] | deltaTm [3] | deltaTm [4] | deltaTm [5] | deltaTm [7] | EC50 [8] | EC90 [8] | deltaTm [9] | Structure (SMILES) | CC50 [6]
1 | 6.8 K | -2.5 K | 5.2 K | 5.4 K | 8.8 K | 8.8 K | 1.8 µM | 2.9 µM | 4.8 K | COc1c(F)ccc(-c2cnc3nc2NCCCNS(=O)(=O)c2cccc(c2)N3)c1F | 2.9 µM
2 | 8 K | 0.3 K | 1.9 K | 4.7 K | 3 K | 7.9 K | > 10 µM | > 10 µM | 4.2 K | COc1cc(-c2cnc3nc2NCCCNS(=O)(=O)c2cc(ccc2O)N3)ccc1F | > 10 µM
3 | 7.3 K | 0.4 K | 2.7 K | 5 K | 3.4 K | 6.9 K | > 10 µM | > 10 µM | 3.9 K | COc1cc(-c2cnc3nc2NCCCNS(=O)(=O)c2cccc(c2)N3)c(F)cc1F | > 10 µM
4 | 3.6 K | 2.4 K | 2.8 K | 3.4 K | 3.6 K | 6.2 K | 3.7 µM | 9 µM | 3.2 K | O=S1(=O)NCCCNc2nc(ncc2-c2ccc(Cl)c(Cl)c2)Nc2cccc1c2 | > 10 µM
